Counter-ions that a name gives are not always drawn.
Legend:
[1] = system: 5HT uptake (rat cerebral cortex synaptosomes); experiment: Synaptosomal uptake of 3H-serotonin (3H-5HT), inhibition in vitro; type: biochemical, Male Sprague-Dawley rats; settings: rat cortical synaptosomes, 37° C., 5 min, 50 nM 3H-5HT
Protocol: (§1) This general procedure is set forth by Wong et al., in Drug Development Research 6:397-403 (1985).
(§2) Male Sprague-Dawley rats (110-150 g) from Harlan Industries (Cumberland, Ind.) were fed a Purina Chow ad libitum for at least 3 days before being used in the studies. Rats were killed by decapitation. Whole brains were removed and dissected. Cerebral cortex was homogenized in 9 volumes of a medium containing 0.32 M sucrose and 10 mM glucose. Crude synaptosomal preparations were isolated after differential centrifugation at 1,000 g for 10 min. and 17,000 g for 28 min. The final pellets were suspended in the same medium and kept in ice until use within the same day.
(§3) Synaptosomal uptake of ^3 H-serotonin(^3 H-5-hydroxytryptaine, ^3 H-5HT) and ^14 C-l-norepinephrine (^14 C-NE) was determined as follows. Cortical synaptosomes (equivalent to 1 mg of protein) were incubated at 37° C. for 5 min in 1 ml of Krebs-bicarbonate medium containing also 10 mM glucose, 0.1 mM iproniazid, 1 mM ascorbic acid, 0.17 mM EDTA, 50 nM ^3 H-5HT and 100 nM ^14 C-NE. The reaction mixture was immediately diluted with 2 ml of ice-chilled Krebs-bicarbonate buffer and filtered under vacuum with a cell harvester (Brandel, Gaithersburg, Md.). […] Radioactivity was measured by a liquid scintillation spectrophotometer. […]

[2] = system: norepinephrine uptake (rat cerebral cortex synaptosomes); experiment: Synaptosomal uptake of 14C-l-norepinephrine (14C-NE), inhibition in vitro; type: biochemical, Male Sprague-Dawley rats; settings: rat cortical synaptosomes, 37° C., 5 min, 100 nM 14C-NE
Protocol: as §1, §2, §3

SMILES	IC50 [1] [nM]	IC50 [2] [nM]
CNCCC(Cc1ccc(C(F)(F)F)cc1)c1ccccc1 (stereo not shown) [Example 1, N-Methyl-3-phenyl-4-(4-trifluoromethylphenyl)-butanaminium chloride]	250	7600
CNCCC(Cc1ccccc1C)c1ccccc1 (stereo not shown) [Example 2, N-Methyl-3-phenyl-4-(2-methylphenyl)-butanaminium tosylate]	330	100
